According to ChEMBL document CHEMBL2331210, “New 2-benzylsulfanyl-nicotinic acid based 1,3,4-oxadiazoles: their synthesis and biological evaluation” (2013):
≈ marks a conversion by molar mass, not a printed value.

What was measured:
SK-MEL-2 = experiment: cells; settings: Homo sapiens, SK-MEL-2, read-out: Activity
Description: Antitumor activity against human SK-MEL-2 cells assessed as cell growth at 0.1 uM

[1] = Antitumor activity against human HCC2998 cells assessed as cell growth at 0.1 uM; type: functional; settings: HCC 2998, read-out: Activity
NCI-H460 = experiment: Antitumor activity against human NCI-H460 cells assessed as cell growth at 0.1 uM; type: functional; settings: read-out: Activity
Pseudomonas aeruginosa = experiment: Antimicrobial activity against Pseudomonas aeruginosa MTCC 2488 assessed as growth inhibition measured after overnight incubation by broth dilution method; type: functional
A498 = experiment: Antitumor activity against human A498 cells assessed as cell growth at 0.1 uM; type: functional; settings: read-out: Activity
Aspergillus niger = experiment: Antimicrobial activity against Aspergillus niger MTCC 282 assessed as growth inhibition measured after overnight incubation by broth dilution method; type: functional
UO-31 = experiment: Antitumor activity against human UO31 cells assessed as cell growth at 0.1 uM; type: functional; settings: read-out: Activity
NCI/ADR-RES = experiment: Antitumor activity against human NCI/ADR-RES cells assessed as cell growth at 0.1 uM; type: functional; settings: read-out: Activity
Streptococcus pyogenes = experiment: Antimicrobial activity against Streptococcus pyogenes MTCC 442 assessed as growth inhibition measured after overnight incubation by broth dilution method; type: functional
MDA-MB-435 = experiment: Antitumor activity against human MDA-MB-435 cells assessed as cell growth at 0.1 uM; type: functional; settings: read-out: Activity
CCRF-CEM = experiment: Antitumor activity against human CCRF-CEM cells assessed as cell growth at 0.1 uM; type: functional; settings: read-out: Activity
SF-295 = experiment: Antitumor activity against human SF295 cells assessed as cell growth at 0.1 uM; type: functional; settings: read-out: Activity
SNB-75 = experiment: Antitumor activity against human SNB75 cells assessed as cell growth at 0.1 uM; type: functional; settings: read-out: Activity
MOLT-4 = experiment: Antitumor activity against human MOLT4 cells assessed as cell growth at 0.1 uM; type: functional; settings: read-out: Activity
LOX IMVI = experiment: Antitumor activity against human LOXIMVI cells assessed as cell growth at 0.1 uM; type: functional; settings: read-out: Activity
SR = experiment: Antitumor activity against human SR cells assessed as cell growth at 0.1 uM; type: functional; settings: read-out: Activity
SK-MEL-5 = experiment: Antitumor activity against human SK-MEL-5 cells assessed as cell growth at 0.1 uM; type: functional; settings: read-out: Activity
SNB-19 = experiment: Antitumor activity against human SNB19 cells assessed as cell growth at 0.1 uM; type: functional; settings: read-out: Activity
HCT-15 = experiment: Antitumor activity against human HCT15 cells assessed as cell growth at 0.1 uM; type: functional; settings: read-out: Activity
SF-268 = experiment: Antitumor activity against human SF268 cells assessed as cell growth at 0.1 uM; type: functional; settings: read-out: Activity
[2] = Antitumor activity against human Hs 578T cells assessed as cell growth at 0.1 uM; type: functional; settings: read-out: Activity
OVCAR-8 = experiment: Antitumor activity against human OVCAR8 cells assessed as cell growth at 0.1 uM; type: functional; settings: read-out: Activity
SW-620 = experiment: Antitumor activity against human SW620 cells assessed as cell growth at 0.1 uM; type: functional; settings: read-out: Activity
PC-3 = experiment: Antitumor activity against human PC3 cells assessed as cell growth at 0.1 uM; type: functional; settings: read-out: Activity
DU-145 = experiment: Antitumor activity against human DU145 cells assessed as cell growth at 0.1 uM; type: functional; settings: read-out: Activity
T47D = experiment: Antitumor activity against human T47D cells assessed as cell growth at 0.1 uM; type: functional; settings: read-out: Activity
MDA-MB-231 = experiment: Antitumor activity against human MDA-MB-231/ATCC cells assessed as cell growth at 0.1 uM; type: functional; settings: read-out: Activity
SF-539 = experiment: Antitumor activity against human SF539 cells assessed as cell growth at 0.1 uM; type: functional; settings: read-out: Activity
RPMI-8226 = experiment: Antitumor activity against human RPMI8226 cells assessed as cell growth at 0.1 uM; type: functional; settings: read-out: Activity
MDA-MB-468 = experiment: Antitumor activity against human MDA-MB-468 cells assessed as cell growth at 0.1 uM; type: functional; settings: read-out: Activity
UACC-257 = experiment: Antitumor activity against human UACC257 cells assessed as cell growth at 0.1 uM; type: functional; settings: read-out: Activity
Staphylococcus aureus = experiment: Antimicrobial activity against Staphylococcus aureus MTCC 96 assessed as growth inhibition measured after overnight incubation by broth dilution method; type: functional
HOP-62 = experiment: Antitumor activity against human HOP62 cells assessed as cell growth at 0.1 uM; type: functional; settings: read-out: Activity
Malme-3M = experiment: Antitumor activity against human MALME-3M cells assessed as cell growth at 0.1 uM; type: functional; settings: read-out: Activity
OVCAR-3 = experiment: Antitumor activity against human OVCAR3 cells assessed as cell growth at 0.1 uM; type: functional; settings: read-out: Activity
Aspergillus clavatus = experiment: Antimicrobial activity against Aspergillus clavatus MTCC 1323 assessed as growth inhibition measured after overnight incubation by broth dilution method; type: functional
[3] = system: Mycobacterium tuberculosis; experiment: Antitubercular activity against Mycobacterium tuberculosis H37Rv assessed as growth inhibition after 12 to 28 days by L.J. agar MIC method; type: functional
MCF7 = experiment: Antitumor activity against human MCF7 cells assessed as cell growth at 0.1 uM; type: functional; settings: read-out: Activity
TK-10 = experiment: Antitumor activity against human TK10 cells assessed as cell growth at 0.1 uM; type: functional; settings: read-out: Activity
UACC-62 = experiment: Antitumor activity against human UACC62 cells assessed as cell growth at 0.1 uM; type: functional; settings: read-out: Activity
BT-549 = experiment: Antitumor activity against human BT549 cells assessed as cell growth at 0.1 uM; type: functional; settings: read-out: Activity
[4] = Antitumor activity against human EKVX cells assessed as cell growth at 0.1 uM; type: functional; settings: read-out: Activity
HL-60 = experiment: Antitumor activity against human HL60(TB) cells assessed as cell growth at 0.1 uM; type: functional; settings: read-out: Activity
Candida albicans = experiment: Antimicrobial activity against Candida albicans MTCC 227 assessed as growth inhibition measured after overnight incubation by broth dilution method; type: functional
SK-MEL-28 = experiment: Antitumor activity against human SK-MEL-28 cells assessed as cell growth at 0.1 uM; type: functional; settings: read-out: Activity
HCT-116 = experiment: Antitumor activity against human HCT116 cells assessed as cell growth at 0.1 uM; type: functional; settings: read-out: Activity
ACHN = experiment: Antitumor activity against human ACHN cells assessed as cell growth at 0.1 uM; type: functional; settings: read-out: Activity
OVCAR-4 = experiment: Antitumor activity against human OVCAR4 cells assessed as cell growth at 0.1 uM; type: functional; settings: read-out: Activity
RXF 393 = experiment: Antitumor activity against human RXF393 cells assessed as cell growth at 0.1 uM; type: functional; settings: read-out: Activity
SK-OV-3 = experiment: Antitumor activity against human SKOV3 cells assessed as cell growth at 0.1 uM; type: functional; settings: read-out: Activity
A549 = experiment: Antitumor activity against human A549/ATCC cells assessed as cell growth at 0.1 uM; type: functional; settings: read-out: Activity
SN12C = experiment: Antitumor activity against human SN12C cells assessed as cell growth at 0.1 uM; type: functional; settings: read-out: Activity
OVCAR-5 = experiment: Antitumor activity against human OVCAR5 cells assessed as cell growth at 0.1 uM; type: functional; settings: read-out: Activity
K562 = experiment: Antitumor activity against human K562 cells assessed as cell growth at 0.1 uM; type: functional; settings: read-out: Activity
NCI-H23 = experiment: Antitumor activity against human NCI-H23 cells assessed as cell growth at 0.1 uM; type: functional; settings: read-out: Activity
U-251 = experiment: Antitumor activity against human U251 cells assessed as cell growth at 0.1 uM; type: functional; settings: read-out: Activity
NCI-H522 = experiment: Antitumor activity against human NCI-H522 cells assessed as cell growth at 0.1 uM; type: functional; settings: read-out: Activity
NCI-H226 = experiment: Antitumor activity against human NCI-H226 cells assessed as cell growth at 0.1 uM; type: functional; settings: read-out: Activity
HT-29 = experiment: Antitumor activity against human HT-29 cells assessed as cell growth at 0.1 uM; type: functional; settings: read-out: Activity
Escherichia coli = experiment: Antimicrobial activity against Escherichia coli MTCC 443 assessed as growth inhibition measured after overnight incubation by broth dilution method; type: functional
IGROV-1 = experiment: Antitumor activity against human IGROV1 cells assessed as cell growth at 0.1 uM; type: functional; settings: read-out: Activity
M14 = experiment: Antitumor activity against human M14 cells assessed as cell growth at 0.1 uM; type: functional; settings: read-out: Activity
CAKI-1 = experiment: Antitumor activity against human CAKI-1 cells assessed as cell growth at 0.1 uM; type: functional; settings: read-out: Activity

Q: Which growth at 0.1 µM (SK-MEL-2) does the source give for O=C(CSc1nnc(-c2cccnc2SCc2ccccc2)o1)Nc1nc(Cl)cc(Cl)n1 here?
A: 102%

Q: And the growth at 0.1 µM [1]?
A: 103%

Q: And the growth at 0.1 µM (NCI-H460)?
A: 105%

Q: And the MIC (Pseudomonas aeruginosa)?
A: 200 µg/mL (≈ 396 µM)

Q: And the growth at 0.1 µM (A498)?
A: 112%

Q: What about the MIC (Aspergillus niger) of the same molecule?
A: 500 µg/mL (≈ 989 µM)

Q: What about the growth at 0.1 µM (UO-31) of the same molecule?
A: 67.7%

Q: And the growth at 0.1 µM (NCI/ADR-RES)?
A: 101%

Q: What about the MIC (Streptococcus pyogenes) of the same molecule?
A: 200 µg/mL (≈ 396 µM)

Q: And the growth at 0.1 µM (MDA-MB-435)?
A: 105%

Q: What about the growth at 0.1 µM (CCRF-CEM) of the same molecule?
A: 101%

Q: And the growth at 0.1 µM (SF-295)?
A: 96.8%

Q: And the growth at 0.1 µM (SNB-75)?
A: 85.7%

Q: And the growth at 0.1 µM (MOLT-4)?
A: 95.7%

Q: What about the growth at 0.1 µM (LOX IMVI) of the same molecule?
A: 94.9%

Q: What about the growth at 0.1 µM (SR) of the same molecule?
A: 101%

Q: And the growth at 0.1 µM (SK-MEL-5)?
A: 101%

Q: What about the growth at 0.1 µM (SNB-19) of the same molecule?
A: 106%

Q: And the growth at 0.1 µM (HCT-15)?
A: 106%

Q: And the growth at 0.1 µM (SF-268)?
A: 99.8%

Q: And the growth at 0.1 µM [2]?
A: 97.4%

Q: What about the growth at 0.1 µM (OVCAR-8) of the same molecule?
A: 102%

Q: And the growth at 0.1 µM (SW-620)?
A: 103%

Q: And the growth at 0.1 µM (PC-3)?
A: 94.5%

Q: And the growth at 0.1 µM (DU-145)?
A: 107%

Q: What about the growth at 0.1 µM (T47D) of the same molecule?
A: 98.5%

Q: And the growth at 0.1 µM (MDA-MB-231)?
A: 92%

Q: What about the growth at 0.1 µM (SF-539) of the same molecule?
A: 101%

Q: And the growth at 0.1 µM (RPMI-8226)?
A: 100%

Q: And the growth at 0.1 µM (MDA-MB-468)?
A: 98.8%

Q: And the growth at 0.1 µM (UACC-257)?
A: 113%

Q: What about the MIC (Staphylococcus aureus) of the same molecule?
A: 250 µg/mL (≈ 495 µM)

Q: And the growth at 0.1 µM (HOP-62)?
A: 90.6%

Q: What about the growth at 0.1 µM (Malme-3M) of the same molecule?
A: 94%

Q: And the growth at 0.1 µM (OVCAR-3)?
A: 106%

Q: And the MIC (Aspergillus clavatus)?
A: 500 µg/mL (≈ 989 µM)

Q: What about the “growth inhibition (GI)” value [3] of the same molecule?
A: 98%

Q: And the MIC ([3]; Mycobacterium tuberculosis, H37Rv)?
A: 100 µg/mL (≈ 198 µM)

Q: And the growth at 0.1 µM (MCF7)?
A: 92%

Q: What about the growth at 0.1 µM (TK-10) of the same molecule?
A: 109%

Q: And the growth at 0.1 µM (UACC-62)?
A: 101%

Q: And the growth at 0.1 µM (BT-549)?
A: 102%

Q: And the growth at 0.1 µM [4]?
A: 103%

Q: What about the growth at 0.1 µM (HL-60) of the same molecule?
A: 98.3%

Q: And the MIC (Candida albicans)?
A: 1000 µg/mL (≈ 1980 µM)

Q: What about the growth at 0.1 µM (SK-MEL-28) of the same molecule?
A: 113%

Q: And the growth at 0.1 µM (HCT-116)?
A: 97.2%

Q: And the growth at 0.1 µM (ACHN)?
A: 103%

Q: What about the growth at 0.1 µM (OVCAR-4) of the same molecule?
A: 106%

Q: And the growth at 0.1 µM (RXF 393)?
A: 105%

Q: What about the growth at 0.1 µM (SK-OV-3) of the same molecule?
A: 110%

Q: And the growth at 0.1 µM (A549)?
A: 104%

Q: What about the growth at 0.1 µM (SN12C) of the same molecule?
A: 103%

Q: What about the growth at 0.1 µM (OVCAR-5) of the same molecule?
A: 106%

Q: What about the growth at 0.1 µM (K562) of the same molecule?
A: 92.8%

Q: What about the growth at 0.1 µM (NCI-H23) of the same molecule?
A: 102%

Q: And the growth at 0.1 µM (U-251)?
A: 106%

Q: And the growth at 0.1 µM (NCI-H522)?
A: 83.1%

Q: What about the growth at 0.1 µM (NCI-H226) of the same molecule?
A: 83.7%

Q: And the growth at 0.1 µM (HT-29)?
A: 110%

Q: What about the MIC (Escherichia coli) of the same molecule?
A: 200 µg/mL (≈ 396 µM)

Q: And the growth at 0.1 µM (IGROV-1)?
A: 105%

Q: What about the growth at 0.1 µM (M14) of the same molecule?
A: 92%

Q: What about the growth at 0.1 µM (CAKI-1) of the same molecule?
A: 95.8%
